Experimental data taken from ChEMBL document CHEMBL6177984, “Pyrazolo[1,5-a]pyrimidine-Based Type-I Photosensitizer as an Efficient Pyroptosis Inducer for Tumor Ablation” (J Med Chem, 2025).
Calls of active or inactive are those of the source. The rule behind the calls is not given here.

Key:
[1] = Induction of ROS generation in BPS buffer assessed as increase in superoxide anion radical level at 10 uM irradiated with 525 nm 20 mW/cm2 light by DHR123 probe based fluorescence spectra analysis; assay type: functional
MDA-MB-231 [2] = test: Dark cytotoxicity against human MDA-MB-231 cells assessed as cell viability at 1 uM incubated for 24 hrs by CCK8 assay; assay type: toxicity, cell-based; conditions: mda-mb-231, 24 h
[3] = Dark cytotoxicity against human MDA-MB-231 cells assessed as cell viability incubated for 24 hrs by CCK8 assay; assay type: toxicity, cell-based
MDA-MB-231 [4] = test: Photocytotoxicity in human MDA-MB-231 cells assessed as cell viability preincubated with compound for 1 hr followed by light irradiated with 400 to 700 nm 100 mW/cm^2 for 10 mins and measured after 24 hrs by CCK-8 assay; assay type: functional, cell-based; conditions: MDA-MB-231, light or radiation study

SMILES | Activity [1] | Activity (MDA-MB-231 [2]) | IC50 at 24 h [3] [µM] | IC50 (MDA-MB-231 [4]) [nM]
COC(=O)c1ccccc1C1c2ccc(N)cc2Oc2cc(N)ccc21 | Active | – | – | –
CC[n+]1ccc(/C=C/c2ccc(-c3cnn4ccc(N5CCOCC5)nc34)s2)cc1.[Br-] | – | Non-toxic | > 10 | > 10000
CC[n+]1ccc(/C=C/c2ccc(-c3cnn4ccc(N5CCOCC5)nc34)s2)c2ccccc21 | – | – | > 10 | 920
CC[n+]1c(/C=C/c2ccc(-c3cnn4ccc(N5CCOCC5)nc34)o2)sc2ccccc21 | – | – | > 10 | 1010
